Assay results as given in US7226761B2, “Manufacture of five-carbon sugars and sugar alcohols” (Danisco Sweeteners Oy, priority 1992, dated 2007).

T1: DOG1 (Saccharomyces cerevisiae, UniProt P38774)
T1 construct: expressed in transfected cells; host or cells: S. cerevisiae H1104 (W303-1B) transformed with plasmid B1020 (YEplac195, ADH1 promoter-DOG1-ADH1 terminator) = strain H1514; crude cell extract
T1 sequence (P38774 1-246): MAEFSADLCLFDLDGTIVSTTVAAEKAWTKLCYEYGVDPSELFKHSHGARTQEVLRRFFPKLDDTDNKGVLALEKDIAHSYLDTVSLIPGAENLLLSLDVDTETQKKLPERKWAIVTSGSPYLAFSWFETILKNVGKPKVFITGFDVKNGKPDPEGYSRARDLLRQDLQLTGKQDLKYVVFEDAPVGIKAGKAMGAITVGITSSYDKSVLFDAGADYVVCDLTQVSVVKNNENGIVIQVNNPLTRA

B1: arabitol-phosphate dehydrogenase: arabitol-phosphate dehydrogenase purified from Enterococcus avium ATCC 35655, SEQ ID NO:69 (protein)
chain: MSKTMKGVSKQAPGYDQMAFIDLSVPEATDDKVLIKVAYTGICGSDIHTFKGEYKNPTTPVVLGHEFSGQVVEVGANVTKVKVGDRVTSETTFYVCGECDYCKEKQYNLCPHRKGIGTQQNGSMANYVLAREESIHLLPDHLSYEGAAMSEPLACCVHAMYQKSHLELKDTIIIMGPGPIGLYLLQIAKEIGAFVIMTGITKDAHRLALAKKLGADVIVDTMKEDLAKVVNEITDGYGVDKVYDASGAVPAVNASLPLIRKQGQFIQVGLFANKMVDLDTESIIQREIEYIGSRSQNPYDWPIAIHLLAKGAINIDEMITKKYPLTEWREAFDKVMEGNEIKVMIESNPEEF
modifications: Bacillus halodurans
B2: Pichia stipitis XDH: xylitol dehydrogenase encoded by the XYL2 gene from Pichia stipitis, expressed in yeast on pAOS67 (protein, UniProt P22144 1-363, looked up)
D-xylulose reductase: MTANPSLVLNKIDDISFETYDAPEISEPTDVLVQVKKTGICGSDIHFYAHGRIGNFVLTKPMVLGHESAGTVVQVGKGVTSLKVGDNVAIEPGIPSRFSDEYKSGHYNLCPHMAFAATPNSKEGEPNPPGTLCKYFKSPEDFLVKLPDHVSLELGALVEPLSVGVHASKLGSVAFGDYVAVFGAGPVGLLAAAVAKTFGAKGVIVVDIFDNKLKMAKDIGAATHTFNSKTGGSEELIKAFGGNVPNVVLECTGAEPCIKLGVDAIAPGGRFVQVGNAAGPVSFPITVFAMKELTLFGSFRYGFNDYKTAVGIFDTNYQNGRENAPIDFEQLITHRYKFKDAIEAYDLVRAGKGAVKCLIDGPE
B3: Saccharomyces cerevisiae XDH: enzyme having xylitol dehydrogenase activity encoded by S. cerevisiae ORF YLR070c, expressed on B1163 (protein, UniProt Q07993 1-356, looked up)
D-xylulose reductase: MTDLTTQEAIVLERPGKITLTNVSIPKISDPNEVIIQIKATGICGSDIHYYTHGRIANYVVESPMVLGHESSGIVALIGENVKTLKVGDRVALEPGIPDRFSPEMKEGRYNLDPNLKFAATPPFDGTLTKYYKTMKDFVYKLPDDVSFEEGALIEPLSVAIHANKLAKIKFGARCVVFGAGPIGLLAGKVASVFGAADVVFVDLLENKLETARQFGATHIVNSGDLPHGVTVDSVIKKAIGKKGADVVFECSGAEPCVRAGIEVCKAGGTIVQVGMGQEEIQFPISIIPTKELTFQGCFRYCQGDYSDSIELVSSRKLSLKPFITHRYSFKDAVEAFEETSHHPLNNIKTIIEGPE

Experiments:
DOG1 [1] = target: T1, DOG1; experiment: Specificity of DOG1 towards sugar phosphates in yeast cell extracts (phosphate release); format: biochemical, S. cerevisiae; details: 20 mM substrate; cell extract of H1514; relative to 2-deoxyglucose-6-P as 100%
Method: The specificity of DOG1 towards xylulose-5-P, ribulose-5-P, ribose-5-P and 2-deoxyglucose-6-P was determined using 20 mM substrate concentrations. Yeast cell extracts were prepared as described in example 15, except that 50 mM imidazole-HCl, 10 mM MgCl2 buffer, pH 6.0 was used. 10 μl of extract and 210 μl of substrate (20 mM) in the same buffer was incubated for 30 min, 30° C. The reaction was stopped with final 2% of TCA and the phosphate released was measured using ammonium molybdate (15 mM), zinc acetate (100 mM), pH 5.0 as the reagent. The formation of molybdenum blue was measured at 350 nm, and quantified by phosphate standards (Sanz, P. et al., Yeast 10:1195–1202 (1994); Bencini, D. A. et al., Anal. Biochem. 132:254–258 (1983)).

DOG1 [2] = target: T1, DOG1; details: 40 mM substrate; relative to 2-deoxyglucose-6-P as 100%; cited from earlier work
[3] = Xylulose 5-phosphate reductase (XPDH/APDH) activity assay with NADH; format: biochemical; details: 5 mM xylulose 5-phosphate as the substrate
Method: The strain BD 170 [pGTK24(MXD2)] as well as untransformed strain BD 170 was grown overnight on either LB or LB, containing 10% glucose, cell extracts were prepared and the XDH activity measured. The assay conditions for measuring XDH activity were: 30° C., 50 mM Tris-HCI, pH 7.0, 0.2 mM NADH and 10 mM D-xylulose. Changes of absorption at 340 nm were recorded; one unit of activity was defined as the amount of enzyme that catalyzed the reduction of one […] of substrate per minute under the conditions of assay (assuming the differential absorption coefficient NADH/NAD^+ to be equal to […]). The following levels of XDH activity were measured in the strain BD170 [pGTK24(MXD2)] grown on the two media: LB—0.5 U/mgproteins, LB-glucose 0.05–0.15 U/mgprotein. Thus, glucose appeared to repress the activity of the aldolase promoter 3–10 fold. No XDH activity could be detected in the strain BD170 grown on either of the two media.
B. subtilis strain BD170 was transformed with pGTK74(LRXPDH) and pGTK74(BHDH2). The transformants were grown overnight in LB containing 25 mg/liter kanamycin, cell extract were prepared by sonication and the activity of XPDH activity was measured. The conditions for measuring the XPDH activity were similar to those used for measuring the xylitol dehydrogenase activity except that xylulose 5-phosphate was used as the substrate (usually at 5 mM concentration) instead of xylulose. The activities were approximately 0.3 U/mg protein for the XPDH from L. rhamnosus and about 0.5 U/mg protein for B. halodurans enzyme.
Enterococcus avium ATCC 35655 was cultivated at 30° C. in 5 liters of a medium containing: peptone—10 g/l, yeast extract—5 g/l, beef extract 10 g/l, K2HPO4 2 g/l, NaCl—5 g/l, MgSO4—0.02 g/l, MnCl2—0.05 g/l, ammonium citrate 2 g/l, Tween 20—1.1 ml/l, xylitol—20g/l, pH 6.5. […]

[4] = Stereospecificity of D-xylulose 5-phosphate reduction, products dephosphorylated and analyzed by HPLC; format: biochemical; details: 10 mM xylulose 5-phosphate, 10 mM NADH, pH 7.0, 37° C.
Method: The stereospecificity of xylulose-phosphate reduction by the B. halodurans XPDH was verified by the following procedure. The reaction between D-xylulose 5-phosphate and NADH was conducted at 37° C. for several hours under the following conditions: 100 mM Tris-HC buffer, pH 7.0, 10 mM xylulose 5-phosphate, 10 mM NADH, […] the enzyme lysate. The reaction products were dephosphorylated with alkaline phosphatase and analyzed by HPLC. […] It should be noted that among the highest-scoring four homologues of the L. rhamnosus XPDH, the enzyme from B. holodurans is the least homologous. This can be interpreted as an indication that the other three homologues (SEQ ID NO:51, 52 and 53) are most probably also xylitol-phosphate dehydrogenases.
The stereospecificity of D-xylulose 5-phosphate reduction by the E. avium arabitol-phosphate dehydrogenase was verified by the following procedure. The reaction between D-xylulose 5-phosphate and NADH was conducted at 37° C. for several hours under the following conditions: 100 mM Tris-HCl buffer, pH 7.0, 10 mM xylulose 5-phosphate, 10 mM NADH, 1U of the enzyme. The reaction products were dephosphorylated with alkaline phosphatase and analyzed by HPLC. […] There are no other arabitol-phosphate dehydrogenases described in the art.
Both arabitol-phosphate dehydrogenase genes were expressed using the same tools and methods as those used for the expression of xylitol-phosphate dehydrogenases (Example 26). Briefly, the coding regions of the two arabitol-phosphate dehydrogenase genes were amplified using the chromosomal DNA of the microorganism from which the enzyme was isolated and the appropriate PCR primers. In the case of E. avium the primers were oAPDH 51 […] SEQ ID NO: 71) and the anti-sense primer oAPDH 31 […]) SEQ ID NO: 72. For B. halodurans, the sense primer was oBHDH 5 ([…], SEQ ID NO: 73) and the anti-sense primer was oBHDH 3 ([…], SEQ ID NO: 74). […] The stereospecificity of D-xylulose 5-phosphate reduction by the previously unknown enzyme from B. halodurans was determined as described in Example 30.

[5] = XDH activity assay in yeast cell extracts, reaction started with D-ribulose; format: biochemical; details: 1 mM D-ribulose; 0.2 mM NADH; pH 7.0; cell extract
Text: (§1) The xylitol dehydrogenases of P. stipitis, Trichoderma reesei and S. cerevisiae were investigated regarding their specificities towards their sugar substrates. Each of the XDH encoding genes was expressed on multi-copy vectors pAOS67, B1070 and B1163, respectively (see Example 12). Yeast strain H1104 (pAOS67, B1163) and H1052 (B1070) harboring each of the multi-copy vectors, H1160, H1886 and H1748, respectively, were cultivated on SCD medium lacking the appropriate selection marker (histidine, leucine, uracil, respectively). Cells were collected by centrifugation and washed twice with 100 mM sodium phosphate buffer pH 7.0. Cells were resuspended at a concentration of 500 mg/ml wet weight, corresponding approximately to 75 mg/ml dry weight, in the same buffer. 1 ml of this suspension was vortexed with 1 g glass beads (0,5 mm Ø) for 15 min. at 4° C., centrifuged in an Eppendorf centrifuge (13,000 rpm) and the supernatant was assayed. XDH activity was assayed in a medium containing 50 mM Pipes KOH pH 7.0, 0.2 mM NADH. The reaction was started by addition of D-xylulose or D-ribulose at a final concentration of 1 mM. The activity was measured by following the adsorption of NADH at 340 nm.

[6] = XDH activity assay in yeast cell extracts, reaction started with D-xylulose; format: biochemical; details: 1 mM D-xylulose; 0.2 mM NADH; pH 7.0; cell extract
Text: as §1

Row | Molecule | Relative activity (20 mM) (DOG1 [1]) [%] | Activity reported in the literature (40 mM) (DOG1 [2]) [%] | specific activity towards D-ribulose, normalized to D-xylulose activity being 100% [5] [%] | specific activity towards D-xylulose, normalized to D-xylulose activity being 100% [6] [%] | other results
1 | O=CC[C@@H](O)[C@H](O)[C@H](O)COP(=O)(O)O [2-deoxyglucose-6-P, 2-deoxyglucose-6-phosphate] | 100 | 100 | – | – | –
2 | O=C(CO)[C@H](O)[C@H](O)COP(=O)(O)O [ribulose-5-P, ribulose-5-phosphate] | 6 | 7 | – | – | –
3 | O=C[C@H](O)[C@H](O)[C@H](O)COP(=O)(O)O [ribose-5-P, ribose-5-phosphate] | 52 | 42 | – | – | –
4 | B1 | – | – | – | – | specific activity of purified enzyme [3]: about 12 U/mgprotein; products found in the reaction mixture / stereospecificity [4]: Only arabitol and xylulose (corresponding to the unreacted xylulose 5-phosphate) were found
5 | B2 | – | – | 25 | 100 | –
6 | B3 | – | – | 10 | 100 | –
